Measurements reported in PMC12389269, “Heteroaryl-Capped Hydroxamic Acid Derivatives with Varied Linkers: Synthesis and Anticancer Evaluation with Various Apoptosis Analyses in Breast Cancer Cells, Including Docking, Simulation, DFT, and ADMET Studies” (Pharmaceuticals, 2025).

Tested on: MCF-7 cells
Experiment: ROS detection with DCFH-DA
Type: cell-based, human
Details: MCF-7, 40, 60, 80 µg/mL, vs control
Source text: ROS are commonly produced as a result of the cellular metabolic routes, and they play a key role as a secondary messenger in the healthy physiological system, but elevated quantities of ROS are the reason for various pathological conditions. To assess oxidative stress (ROS)-mediated apoptosis, DCFH-DA (2′,7′-dichlorodihydrofluorescein diacetate) dye was used as ROS transforms DCFH to DCF, producing a green fluorescence. The intensity of green fluorescence emitted is directly correlated with the amount of ROS produced by the cells in the treatment groups. Briefly, MCF-7 cells were passaged then seeded (5 × 10^4 cells /well) in a 12-well plate and exposed to all three (lower, IC50, higher) concentrations of compound VI(i); then, overnight incubation was undertaken with 5% carbon dioxide at 37 °C. To assess the generated ROS, treated cells (MCF-7) were washed with PBS. Staining was undertaken using DCFH-DA and photographed with the help of a fluorescence microscope (inverted) in the green and phase contrast channels.

COc1ccc(-c2cnn(CCCCCC(=O)NO)n2)cc1 [VI(i), N-Hydroxy-6-(4-(4-methoxyphenyl)-2H-1,2,3-triazol-2-yl)hexanamide]
ROS level: significantly increased in concentration-dependent manner
